Data: US11542262B2, “Phosphatidylinositol 3-kinase inhibitors” (NANJING ZHENGXIANG PHARMACEUTICALS CO., LTD., priority 2019, dated 2023)
Converted amounts (≈) assume the structure as drawn.

Columns and labels:
PI3Kγ = PI3Kγ (Homo sapiens, UniProt P48736); test: ADP-Glo luminescent assay, enzymatic activity of PI3K gamma; format: biochemical; settings: ATP 25 μM; read-out: PI3K gamma (nM) inhibitory activity (IC50)
Procedure: The compounds would be tested from 1 or 10 μM, 3-fold dilution for 10 doses, in duplicate.
(§1) Compound preparation: Dilute a compound to 100× of the final desired highest inhibitor concentration in reaction by 100% DMSO. Transfer 100 μl of this compound dilution to a well in a 96-well plate and serially dilute it with DMSO for a total of 10 concentrations.
Kinase reaction: Prepare a solution of PI3K in 1× kinase buffer at 2-fold the final concentration of each reagent in the assay. Control wells contain 1× kinase buffer without enzyme. Prepare substrate solution of PIP2 substrate and ATP in 1× kinase reaction buffer at 2-fold of the final concentration. Add concentration substrate solution to each well to the final concentration. Cover the assay plate, shake to mix, and incubate at room temperature for 1 hour. Add 5 μl of ADP-Glo reagent to each well to stop the reaction. […] Add 10 ul Kinase Detection Reagent to each well, shake 1 min, equilibrate for 30 min before reading on a luminescence plate reader.
(§2) Data Analysis: Convert RLU values to percent inhibition values as Percent inhibition=(max−sample RLU)/(max−min)*100. “min”—no enzyme control; “max”—DMSO control. Fit the data in XLFit excel add-in version 5.4.0.8 to obtain IC50 values. Y=Bottom+(Top−Bottom)/(1+(IC50/X)^HillSlope).

PI3Kδ = PI3Kδ (Homo sapiens, UniProt O00329); test: ADP-Glo luminescent assay, enzymatic activity of PI3K delta; format: biochemical; settings: ATP 25 μM; read-out: PI3K delta (nM) inhibitory activity (IC50)
Procedure: Enzymatic activity of PI3K isoforms: Enzymatic activity of the class I PI3K isoforms in the presence of the compounds of Table 1 was measured using ADP-Glo luminescent assay against PI3Kα, PI3Kβ, PI3Kδ and PI3Kγ with ATP concentration at 25 μM. […] The compounds would be tested from 1 or 10 μM, 3-fold dilution for 10 doses, in duplicate.
as §1
Kinase reaction: Prepare a solution of PI3K in 1× kinase buffer at 2-fold the final concentration of each reagent in the assay. Control wells contain 1× kinase buffer without enzyme. Prepare substrate solution of PIP2 substrate and ATP in 1× kinase reaction buffer at 2-fold of the final concentration. Add concentration substrate solution to each well to the final concentration. Cover the assay plate, shake to mix, and incubate at room temperature for 1 hour. Add 5 μl of ADP-Glo reagent to each well to stop the reaction. Mix briefly with a quick spin, shake slowly on the shaker for 120 min. Add 10 ul Kinase Detection Reagent to each well, shake 1 min, equilibrate for 30 min before reading on a luminescence plate reader.
as §2

PI3K gamma = molecular target: T1, PI3K gamma (Mus musculus, UniProt Q9JHG7); test: Raw264.7 cell assay: phosphorylation of AKT in C5a stimulated RAW264.7 cells (AlphaLISA); format: cell-based; settings: pAKT, read-out: PI3K gamma Raw264.7 cell (nM) cellular activity (IC50)
T1 construct: endogenous in cells; host or cells: RAW264.7
Procedure: This study aims to determine the inhibitory effect of compounds on PI3K gamma and PI3K delta in corresponding cell based assays. PI3K gamma activity was reflected by phosphorylation of AKT in C5a stimulated RAW264.7 cells, and PI3K delta activity was reflected by phosphorylation of AKT in anti-IgM stimulated Raji cells. Phosphorylation of AKT in cells was determined using AlphaLISA technology from PerkinElmer.
Raw264.7 cell assay: Prepare Passage 15 Raw264.7 cell and add 6 μL of 30K cells per well in 384-well plate by multidrop. Centrifuge at 500 RPM for 30 s and incubate for 2 hours at 37° C., 5% CO2. Add 30 nL compound by echo and incubate for 30 min at 37° C., 5% CO2. […] Add 2 μL of 5× lysis buffer by multidrop, incubate for 10 min on a plate shaker. Add 5 μL acceptor mix provided in the kit, centrifuge at 1000 RPM for 1 min. Add 5 μL donor mix provided in the kit, centrifuge at 1000 RPM for 1 min and incubate in dark for 2 hours at 25° C. Read AlphaLISA signal on Envision.
Y=Bottom+(Top−Bottom)/(1+10^((Log IC50−X)*Hill Slope)) X: Log of cpd concentration Y: Inhibition

[1] = Kinetic solubility test in PBS pH7.4; format: physicochemical; settings: aqueous buffer, kinetic from dmso stock; PBS pH 7.4, 25° C., 2 hours
Procedure: 15 μL of stock solution (10 mM) was placed in order into their proper 96-well rack. 485 μL of PBS pH7.4 was added into each vial of the cap-less Solubility Sample plate. The assay was performed in singlet. Add one stir stick to each vial and seal using a molded PTFE/Silicone plug. […] After completion of the 2 hours, the samples from the Solubility Sample plate were transferred into the filter plate. all the samples were filtered using the Vacuum Manifold. Aliquot of 5 μL was taken from the filtrate followed by addition of 495 μL of a mixture of H2O and acetonitrile containing internal standard (1:1). A certain proportion of ultrapure water was used to dilute the diluent according to the peak shape. The dilution factor was changed according to the solubility values and the LC-MS signal response.
Preparation of 3 μM standards (STD): From the 10 mM DMSO STD plate, 6 μL was transferred into the remaining empty plate, and then 194 μL of DMSO was added to that plate to have a STD concentration of 300 μM. From the 300 μM DMSO STD plate, 5 μL was transferred into the remaining empty plate, and then 495 μL of a mixture of H2O and acetonitrile containing internal standard (1:1) was added to that plate to have a final STD concentration of 3 μM. A certain proportion of ultrapure water was used to dilute the diluent according to the peak shape. The concentrations of the standard samples were changed according to the LC-MS signal response.
Procedure for sample analysis: The plate was placed into the well plate autosampler. The samples were evaluated by LC-MS/MS analysis.
Data analysis: All calculations were carried out using Microsoft Excel.
The filtrate was analyzed and quantified against a standard of known concentration using LC coupled with mass spectral peak identification and quantitation. Solubility values of the test compound and control compound were calculated as follows:
[formula] • Any value of the compounds that was not within the specified limits was rejected and the experiment was repeated.

PI3Kδ, sequence (O00329 whole entry, species assumed, canonical isoform): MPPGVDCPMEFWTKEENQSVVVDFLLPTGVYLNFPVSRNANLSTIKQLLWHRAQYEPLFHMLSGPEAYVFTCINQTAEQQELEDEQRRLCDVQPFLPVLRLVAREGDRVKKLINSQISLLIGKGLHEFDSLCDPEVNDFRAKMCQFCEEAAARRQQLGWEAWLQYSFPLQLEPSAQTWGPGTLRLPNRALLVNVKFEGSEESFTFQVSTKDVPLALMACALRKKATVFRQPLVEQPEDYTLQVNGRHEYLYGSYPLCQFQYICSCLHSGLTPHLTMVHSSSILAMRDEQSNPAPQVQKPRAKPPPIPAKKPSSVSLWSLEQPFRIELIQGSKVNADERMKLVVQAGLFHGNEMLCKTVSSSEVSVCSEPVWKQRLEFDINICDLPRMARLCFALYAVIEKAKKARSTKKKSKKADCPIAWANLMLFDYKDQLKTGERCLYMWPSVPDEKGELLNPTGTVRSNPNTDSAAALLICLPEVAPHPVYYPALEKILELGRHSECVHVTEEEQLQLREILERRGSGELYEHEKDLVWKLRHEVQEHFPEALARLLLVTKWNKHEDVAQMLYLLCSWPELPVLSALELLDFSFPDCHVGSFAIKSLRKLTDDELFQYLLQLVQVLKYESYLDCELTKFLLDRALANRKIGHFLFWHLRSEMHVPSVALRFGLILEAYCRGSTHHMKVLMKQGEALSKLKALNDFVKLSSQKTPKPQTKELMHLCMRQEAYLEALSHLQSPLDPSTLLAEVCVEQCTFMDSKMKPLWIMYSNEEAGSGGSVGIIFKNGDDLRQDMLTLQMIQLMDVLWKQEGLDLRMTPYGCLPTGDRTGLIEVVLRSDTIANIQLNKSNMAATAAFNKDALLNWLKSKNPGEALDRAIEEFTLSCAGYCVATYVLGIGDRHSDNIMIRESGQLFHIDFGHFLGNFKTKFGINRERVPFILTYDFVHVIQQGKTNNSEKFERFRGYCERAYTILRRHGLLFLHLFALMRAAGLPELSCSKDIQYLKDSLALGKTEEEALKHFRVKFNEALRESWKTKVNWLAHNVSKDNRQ
PI3Kδ, sequence (P27986 whole entry partner, species assumed, canonical isoform): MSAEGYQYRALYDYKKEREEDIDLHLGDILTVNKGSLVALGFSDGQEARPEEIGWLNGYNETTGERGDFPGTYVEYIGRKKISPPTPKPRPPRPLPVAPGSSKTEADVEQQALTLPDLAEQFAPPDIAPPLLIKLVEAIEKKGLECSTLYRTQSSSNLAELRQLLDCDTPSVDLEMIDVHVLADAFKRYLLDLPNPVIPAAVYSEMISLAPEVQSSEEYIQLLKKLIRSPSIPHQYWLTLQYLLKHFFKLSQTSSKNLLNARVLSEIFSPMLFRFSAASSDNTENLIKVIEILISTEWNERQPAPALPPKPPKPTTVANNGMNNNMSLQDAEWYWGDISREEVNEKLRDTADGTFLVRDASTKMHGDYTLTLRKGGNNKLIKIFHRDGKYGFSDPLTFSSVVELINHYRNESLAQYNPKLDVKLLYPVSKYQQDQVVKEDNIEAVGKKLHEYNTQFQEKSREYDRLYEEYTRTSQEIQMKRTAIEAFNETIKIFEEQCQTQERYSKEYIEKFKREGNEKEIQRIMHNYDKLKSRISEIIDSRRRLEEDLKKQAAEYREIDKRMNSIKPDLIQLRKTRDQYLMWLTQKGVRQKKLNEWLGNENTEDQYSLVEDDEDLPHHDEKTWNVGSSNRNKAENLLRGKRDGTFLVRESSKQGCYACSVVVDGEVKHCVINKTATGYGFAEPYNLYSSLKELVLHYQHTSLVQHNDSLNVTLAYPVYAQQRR
T1 sequence (Q9JHG7 whole entry): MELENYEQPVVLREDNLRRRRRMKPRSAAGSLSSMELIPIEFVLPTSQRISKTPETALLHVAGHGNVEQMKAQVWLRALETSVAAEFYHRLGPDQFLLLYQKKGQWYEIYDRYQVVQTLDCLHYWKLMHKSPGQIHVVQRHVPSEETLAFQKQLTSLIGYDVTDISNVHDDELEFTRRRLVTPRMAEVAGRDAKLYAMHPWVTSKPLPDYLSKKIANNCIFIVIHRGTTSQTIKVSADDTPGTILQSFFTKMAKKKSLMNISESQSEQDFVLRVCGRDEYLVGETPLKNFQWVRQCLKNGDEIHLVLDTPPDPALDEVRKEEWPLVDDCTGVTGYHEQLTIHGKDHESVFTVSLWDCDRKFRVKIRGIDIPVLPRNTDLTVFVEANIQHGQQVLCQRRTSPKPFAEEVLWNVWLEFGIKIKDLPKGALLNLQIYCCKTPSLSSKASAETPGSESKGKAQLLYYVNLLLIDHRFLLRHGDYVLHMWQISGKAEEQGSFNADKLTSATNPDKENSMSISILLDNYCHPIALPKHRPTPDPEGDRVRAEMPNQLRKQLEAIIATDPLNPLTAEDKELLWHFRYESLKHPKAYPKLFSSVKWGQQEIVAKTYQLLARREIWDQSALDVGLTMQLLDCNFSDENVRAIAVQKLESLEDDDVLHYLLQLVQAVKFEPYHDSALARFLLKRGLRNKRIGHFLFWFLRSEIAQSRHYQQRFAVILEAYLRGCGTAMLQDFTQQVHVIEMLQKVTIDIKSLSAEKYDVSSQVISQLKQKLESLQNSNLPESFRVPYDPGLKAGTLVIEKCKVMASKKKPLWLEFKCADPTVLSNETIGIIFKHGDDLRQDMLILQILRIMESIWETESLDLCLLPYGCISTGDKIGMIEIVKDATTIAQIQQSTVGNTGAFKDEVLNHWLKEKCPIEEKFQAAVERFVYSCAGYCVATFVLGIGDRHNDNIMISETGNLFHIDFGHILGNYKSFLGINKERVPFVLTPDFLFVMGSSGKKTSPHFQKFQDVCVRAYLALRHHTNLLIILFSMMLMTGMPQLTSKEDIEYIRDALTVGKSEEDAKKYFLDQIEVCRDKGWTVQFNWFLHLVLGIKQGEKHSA
T1 sequence (Q5SW28 whole entry partner): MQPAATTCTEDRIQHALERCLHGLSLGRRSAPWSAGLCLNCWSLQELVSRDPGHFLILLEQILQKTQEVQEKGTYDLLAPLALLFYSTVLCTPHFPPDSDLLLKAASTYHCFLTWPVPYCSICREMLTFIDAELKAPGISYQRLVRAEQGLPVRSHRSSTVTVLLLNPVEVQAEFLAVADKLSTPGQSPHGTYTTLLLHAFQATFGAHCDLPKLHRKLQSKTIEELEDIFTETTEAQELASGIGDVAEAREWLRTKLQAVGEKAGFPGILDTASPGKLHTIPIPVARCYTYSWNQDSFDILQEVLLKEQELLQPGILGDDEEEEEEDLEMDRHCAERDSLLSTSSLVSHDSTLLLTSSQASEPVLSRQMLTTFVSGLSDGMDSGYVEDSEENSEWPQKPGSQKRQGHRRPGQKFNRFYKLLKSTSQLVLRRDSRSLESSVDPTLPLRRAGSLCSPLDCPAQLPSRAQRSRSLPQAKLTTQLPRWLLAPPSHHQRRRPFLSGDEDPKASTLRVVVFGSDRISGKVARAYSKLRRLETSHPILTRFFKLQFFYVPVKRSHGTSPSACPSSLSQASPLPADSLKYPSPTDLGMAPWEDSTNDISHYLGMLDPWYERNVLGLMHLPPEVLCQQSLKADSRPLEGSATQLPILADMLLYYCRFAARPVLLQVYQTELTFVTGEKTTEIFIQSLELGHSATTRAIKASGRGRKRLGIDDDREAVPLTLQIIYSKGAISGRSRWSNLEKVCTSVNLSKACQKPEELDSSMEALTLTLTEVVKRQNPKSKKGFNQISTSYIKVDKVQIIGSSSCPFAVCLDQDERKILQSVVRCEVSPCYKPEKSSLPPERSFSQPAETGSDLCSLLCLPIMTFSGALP
PI3Kγ, sequence (P48736 whole entry, species assumed): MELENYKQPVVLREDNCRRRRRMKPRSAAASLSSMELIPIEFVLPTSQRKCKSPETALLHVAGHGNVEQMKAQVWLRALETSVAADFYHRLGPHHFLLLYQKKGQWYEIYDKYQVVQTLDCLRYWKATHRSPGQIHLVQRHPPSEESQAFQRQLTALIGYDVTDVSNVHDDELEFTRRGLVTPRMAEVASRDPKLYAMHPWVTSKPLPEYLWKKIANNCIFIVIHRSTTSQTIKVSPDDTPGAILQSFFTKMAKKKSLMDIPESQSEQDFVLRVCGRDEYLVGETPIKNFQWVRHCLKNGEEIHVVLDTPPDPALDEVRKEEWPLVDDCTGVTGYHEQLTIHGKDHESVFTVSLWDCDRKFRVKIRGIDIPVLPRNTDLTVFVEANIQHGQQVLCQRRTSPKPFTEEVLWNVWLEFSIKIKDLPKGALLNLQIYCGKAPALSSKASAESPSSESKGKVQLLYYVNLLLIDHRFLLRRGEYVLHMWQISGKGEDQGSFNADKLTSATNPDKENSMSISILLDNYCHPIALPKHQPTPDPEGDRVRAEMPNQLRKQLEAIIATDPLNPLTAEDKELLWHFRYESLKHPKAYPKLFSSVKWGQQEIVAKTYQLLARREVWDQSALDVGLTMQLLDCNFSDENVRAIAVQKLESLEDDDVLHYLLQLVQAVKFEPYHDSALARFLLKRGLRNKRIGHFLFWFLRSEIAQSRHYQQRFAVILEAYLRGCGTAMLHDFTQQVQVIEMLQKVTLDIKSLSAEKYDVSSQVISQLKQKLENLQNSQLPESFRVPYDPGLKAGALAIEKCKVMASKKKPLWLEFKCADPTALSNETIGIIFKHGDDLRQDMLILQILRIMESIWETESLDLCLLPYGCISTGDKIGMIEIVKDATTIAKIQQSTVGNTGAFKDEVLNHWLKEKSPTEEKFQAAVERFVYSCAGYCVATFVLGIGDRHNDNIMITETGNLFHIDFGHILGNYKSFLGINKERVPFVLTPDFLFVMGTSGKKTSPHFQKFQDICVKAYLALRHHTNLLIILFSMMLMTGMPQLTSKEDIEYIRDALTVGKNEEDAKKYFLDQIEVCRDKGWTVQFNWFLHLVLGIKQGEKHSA

SMILES | IC50 (PI3Kγ) | IC50 (PI3Kδ) | IC50 (PI3K gamma) | solubility at 2 h [1]
CC(=O)Nc1nc(C)c(-c2cnc3c(c2)CN([C@@H](C)C2CC2)C3=O)s1 [Compound 8, (S)-N-(5-(6-(1-cyclopropylethyl)-7-oxo-6,7-dihydro-5H-pyrrolo[3,4-b]pyridin-3-yl)-4-methylthiazol-2-yl)acetamide] | 34 nM | 361 nM | 115 nM | –
CC(=O)Nc1nc(C)c(-c2ccc3c(c2)CN([C@@H](C)C2CC2)C3=O)s1 [Compound 10, (S)-N-(5-(2-(1-cyclopropylethyl)-1-oxoisoindolin-5-yl)-4-methylthiazol-2-yl)acetamide] | 2.5 nM | 359 nM | 290 nM | –
COCCOc1nc(-c2sc(NC(C)=O)nc2C)cc2c1C(=O)N([C@@H](C)C1CC1)C2 [Compound 42, (S)-N-(5-(2-(1-cyclopropylethyl)-4-(2-methoxyethoxy)-3-oxo-2,3-dihydro-1H-pyrrolo[3,4-c]pyridin-6-yl)-4-methylthiazol-2-yl)acetamide] | 1.8 nM | – | – | 2.6 µM (≈ 1.12 µg/mL)
CCC(=O)Nc1nc(C)c(-c2cc3c(c(P(C)(C)=O)c2)C(=O)N([C@@H](C)C2CC2)C3)s1 [Compound 2, (S)-N-(5-(2-(1-cyclopropylethyl)-7-(dimethylphosphoryl)-1-oxoisoindolin-5-yl)-4-methylthiazol-2-yl)propionamide] | 3.7 nM | > 1000 nM | – | –
CC(=O)Nc1nc(C)c(-c2cc3c(c(N4CCC(O)CC4)n2)C(=O)N([C@@H](C)C2CC2)C3)s1 [Compound 46, (S)-N-(5-(2-(1-cyclopropylethyl)-4-(4-hydroxypiperidin-1-yl)-3-oxo-2,3-dihydro-1H-pyrrolo[3,4-c]pyridin-6-yl)-4-methylthiazol-2-yl)acetamide] | 0.7 nM | – | 3.8 nM | 6.1 µM (≈ 2.78 µg/mL)
C[C@H](NC(=O)c1c(N)nn2cccnc12)c1cc2cccc(C#Cc3cnn(C)c3)c2c(=O)n1-c1ccccc1 [IPI-549, reference compound] | – | – | – | 6.4 µM (≈ 3.38 µg/mL)
CC[S@@+]([O-])c1cc(-c2sc(NC(C)=O)nc2C)cc2c1C(=O)N([C@@H](C)C1CC1)C2 (racemic) [Compound 13, N-(5-(2-((S)-1-cyclopropylethyl)-7-(ethylsulfinyl)-1-oxoisoindolin-5-yl)-4-methylthiazol-2-yl)acetamide] | 3.1 nM | – | 22 nM | –
CNC(=O)c1nc(-c2sc(NC(C)=O)nc2C)cc2c1C(=O)N([C@@H](C)C1CC1)C2 [Compound 32, (S)-6-(2-acetamido-4-methylthiazol-5-yl)-2-(1-cyclopropylethyl)-N-methyl-3-oxo-2,3-dihydro-1H-pyrrolo[3,4-c]pyridine-4-carboxamide] | 2.2 nM | – | 208 nM | –

Continued by falling IC50 (PI3Kγ), values first:

IC50 (PI3Kγ) | IC50 (PI3Kδ) | IC50 (PI3K gamma) | solubility at 2 h [1] | SMILES
3.8 nM | – | 446 nM | – | CC(=O)Nc1nc(C)c(-c2cc3c(c(N4CCCC4=O)n2)C(=O)N([C@@H](C)C2CC2)C3)s1 [Compound 25, (S)-N-(5-(2-(1-cyclopropylethyl)-3-oxo-4-(2-oxopyrrolidin-1-yl)-2,3-dihydro-M-pyrrolo[3,4-c]pyridin-6-yl)-4-methylthiazol-2-yl)acetamide]
3.7 nM | – | 271 nM | – | CC(=O)Nc1nc(C)c(-c2cc3c(c(N4CCNCC4)n2)C(=O)N([C@@H](C)C2CC2)C3)s1 [Compound 39, (S)-N-(5-(2-(1-cyclopropylethyl)-3-oxo-4-(piperazin-1-yl)-2,3-dihydro-1H-pyrrolo[3,4-c]pyridin-6-yl)-4-methylthiazol-2-yl)acetamide]
2.3 nM | – | – | 3.5 µM (≈ 1.5 µg/mL) | CC(=O)Nc1ncc(-c2cc3c(c(N4CCOCC4)n2)C(=O)N([C@@H](C)C2CC2)C3)s1 [Compound 41, (S)-N-(5-(2-(1-cyclopropylethyl)-4-morpholino-3-oxo-2,3-dihydro-1H-pyrrolo[3,4-c]pyridin-6-yl)thiazol-2-yl)acetamide]
2 nM | – | 6.3 nM | 25 µM (≈ 12.1 µg/mL) | CC(=O)Nc1nc(C)c(-c2cc3c(c(N4CCN(C(C)=O)CC4)n2)C(=O)N([C@@H](C)C2CC2)C3)s1 [Compound 40, (S)-N-(5-(4-(4-acetylpiperazin-1-yl)-2-(1-cyclopropylethyl)-3-oxo-2,3-dihydro-1H-pyrrolo[3,4-c]pyridin-6-yl)-4-methylthiazol-2-yl)acetamide]
1.6 nM | > 1000 nM | 28 nM | – | CC(=O)Nc1nc(C)c(-c2cc3c(c(S(C)(=O)=O)n2)C(=O)N([C@@H](C)C2CC2)C3)s1 [Compound 19, (S)-N-(5-(2-(1-cyclopropylethyl)-4-(methylsulfonyl)-3-oxo-2,3-dihydro-1H-pyrrolo[3,4-c]pyridin-6-yl)-4-methylthiazol-2-yl)acetamide]
1.5 nM | – | 65 nM | – | CC(=O)Nc1nc(C)c(-c2cc3c(c(NC(=O)N(C)C)n2)C(=O)N([C@@H](C)C2CC2)C3)s1 [Compound 28, (S)-N-(5-(2-(1-cyclopropylethyl)-4-(3,3-dimethylureido)-3-oxo-2,3-dihydro-1H-pyrrolo[3,4-c]pyridin-6-yl)-4-methylthiazol-2-yl)acetamide]
1.4 nM | > 1000 nM | – | – | CC(=O)Nc1nc(C)c(-c2cc3c(c(NC(=O)C4CC4)n2)C(=O)N([C@@H](C)C2CC2)C3)s1 [Compound 26, (S)-N-(6-(2-acetamido-4-methylthiazol-5-yl)-2-(1-cyclopropylethyl)-3-oxo-2,3-dihydro-M-pyrrolo[3,4-c]pyridin-4-yl)cyclopropanecarboxamide]
1 nM | – | 20 nM | – | CC(=O)Nc1nc(C)c(-c2cc3c(c(OCCO)n2)C(=O)N([C@@H](C)C2CC2)C3)s1 [Compound 50, (S)-N-(5-(2-(1-cyclopropylethyl)-4-(2-hydroxyethoxy)-3-oxo-2,3-dihydro-1H-pyrrolo[3,4-c]pyridin-6-yl)-4-methylthiazol-2-yl)acetamide]
0.87 nM | > 1000 nM | 5.1 nM | 1.2 µM (≈ 0.496 µg/mL) | CC(=O)Nc1nc(C)c(-c2cc3c(c(NC(C)=O)n2)C(=O)N([C@@H](C)C2CC2)C3)s1 [Compound 44, (S)-N-(5-(4-acetamido-2-(1-cyclopropylethyl)-3-oxo-2,3-dihydro-M-pyrrolo[3,4-c]pyridin-6-yl)-4-methylthiazol-2-yl)acetamide]
